# Laboratory results: publication PMC4447534 (ChemMedChem, 2015)
# “And” between values parts separate entries of the source, which are not always exact repeats. Identical values can stand only once. Like-named read-outs stand apart in the source and are kept apart here.
# Assays:
# [1] = tested on: T. cruzi (amastigotes); assay: microbe, parasite or virus in culture; settings: Trypanosoma cruzi, read-out: T. cruzi ED50
# [2] = tested on: Vero cells; assay: Cytotoxicity for Vero cells; assay type: cell-based; settings: one experiment in triplicate, means ± S.D.
# [3] = tested on: T. cruzi (amastigotes); settings: for T. cruzi ED50: intracellular amastigotes, one experiment in triplicate, means ± S.D.; for SI (T. cruzi): selectivity index, Vero cells versus T. cruzi
# [4] = tested on: T. gondii (tachyzoites)
# [5] = tested on: amastigotes of Trypanosoma cruzi; settings: cited from earlier work
# [6] = tested on: murine models of Chagas disease; settings: ketoconazole as positive control; cited from earlier work
# [7] = selectivity index, Vero cells versus T. gondii
Molecule,IC50 [1] [µM],Cytotoxicity ED50 [2] [µM],T. cruzi ED50 [3],also measured
"O=C(Cn1ccnc1[N+](=O)[O-])NCc1ccccc1 [Benznidazole, reference compound]",1.92 ± 0.55,–,–,–
"N#CSCCOc1ccc(Oc2cccc(C(F)(F)F)c2)cc1 [Compound 15, 4-[(3-Trifluoro)phenoxy]phenoxyethyl Thiocyanate]",–,> 50.0,10.0 µM and 10.0 ± 2.5 µM,SI (T. cruzi) [3]: > 5.0; SI (T. gondii) [4]: > 31.1; T. gondii ED50 [4]: 1.6 µM and 1.66 ± 0.35 µM
"N#CSCCOc1ccc(Oc2ccc(C(F)(F)F)cc2)cc1 [Compound 16, 4-[(4-Trifluoro)phenoxy]phenoxyethyl Thiocyanate]",–,> 50.0,9.2 µM and 9.2 ± 1.8 µM,SI (T. gondii) [4]: > 26.7; T. gondii ED50 [4]: 1.9 µM and 1.86 ± 0.38 µM
"N#CSCCOc1ccc(Oc2ccc3ccccc3c2)cc1 [Compound 20, β-Naphtyloxyphenoxyethyl Thiocyanate]",–,104.7 ± 7.8,–,"T. gondii ED50 [4]: 2.3 µM and 2.25 ± 0.84 µM; SI (T. gondii) [4, 7]: 46.5"
"N#CSCCOc1ccc(Oc2ccccn2)cc1 [Compound 29, 4-(Pyridin-2-yloxy)phenoxyethyl Thiocyante]",–,> 200.0,–,–
"N#CSCCOc1cccc(Oc2ccccc2Cl)c1 [Compound 46, 3-(2-Chlorophenoxy)phenoxyethyl Thiocyanate]",11.9 ± 0.38,> 50.0,–,"SI (T. gondii) [4, 7]: 23.4"
"N#CSCCOc1cccc(Oc2cccc(Cl)c2)c1 [Compound 47, 3-(3-Chlorophenoxy)phenoxyethyl Thiocyanate]",> 20,> 200.0,vanishing biological activity,–
"N#CSCCOc1cccc(Oc2ccc(Cl)cc2)c1 [Compound 48, 3-(4-Chlorophenoxy)phenoxyethyl Thiocyanate]",6.27 ± 0.75,98.4 ± 5.8,very low micromolar range,SI (T. cruzi) [3]: 15.7
"COc1ccccc1Oc1cccc(OCCSC#N)c1 [Compound 49, 3-(2-Methoxyphenoxy)phenoxyethyl Thiocyanate]",11.7 ± 2.52,115.7 ± 39.8,–,"SI (T. gondii) [4, 7]: 41.5"
"COc1cccc(Oc2cccc(OCCSC#N)c2)c1 [Compound 50, 3-(3-Methoxyphenoxy)-phenoxyethyl Thiocyanate]",8.75 ± 0.33,96.2 ± 37.5,–,"SI (T. cruzi) [3]: 11.0; SI (T. gondii) [4, 7]: 23.9"
"N#CSCCOc1cccc(Oc2ccccn2)c1 [Compound 60, 3-(2-Pyridyloxy)phenoxyethyl Thiocyanate]",> 10,> 200.0,free of antiparasitic activity,–
"N#CSCCOc1cccc(Oc2cccnc2)c1 [Compound 61, 3-(3-Pyridyn-3-yloxy)phenoxyethyl Thiocyanate]",–,124.0 ± 12.0,–,SI (T. cruzi) [3]: 16.6; SI (T. gondii) [4]: 33.5
"N#CSCCOc1cccc(Oc2ccncc2)c1 [Compound 62, 3-(4-Pyridyloxy)phenoxyethyl Thiocyanate]",> 10,> 200.0,free of antiparasitic activity,–
"[N-]=[N+]=NCCOc1ccc(Oc2ccccc2)cc1 [Compound 64, 4-Phenoxyphenoxyethyl Azide]",> 10,> 200.0,–,–
"N#CSCCOc1ccc(Br)cc1Br [Compound 68, 2,4-Dibromophenoxyethyl Thiocyanate]",> 20,> 50.0,inactive,–
"Cc1ccc(S(=O)(=O)OCCOc2cccnc2)cc1 [Compound 71, 3-Pyridyloxyethyl 4-Toluenesulfonate]",> 10,> 200,–,–
"N#CSCCOc1cccnc1 [Compound 72, 3-Pyridyloxyethyl Thiocyanate]",–,–,devoid of antiparasitic activity,"T. gondii ED50 ([4]; tachyzoites, one experiment in triplicate, means ± S.D.): devoid of antiparasitic activity"
"N#CSCCOc1ccc(Oc2ccccc2)cc1 [WC-9, 4-phenoxyphenoxyethyl thiocyanate, reference compound]",5 ± 1.1,82.6 ± 7.3,–,ED50 against amastigotes of Trypanosoma cruzi [5]: low nanomolar range; effect on parasitemia [6]: able to impair parasitemia
α-Naphtyloxyphenylethyl Thiocyanate [Compound 24],–,–,–,"SI (T. cruzi) [3]: > 7; T. gondii ED50 [4]: 2.9 µM and 2.87 ± 0.19 µM; SI (T. gondii) [4, 7]: 24.4"
